Measurements reported in publication PMC5826726 (Biochemical pharmacology, 2017).
Like-named read-outs stand apart in the source and are kept apart here.

Legend:
recombinant human PRMT3 = recombinant human PRMT3 (Homo sapiens, UniProt O60678); assay: PRMT3 radiometric activity assay; format: biochemical; conditions: for Inhibition of PRMT3: 10 nM to 200 µM (1,8-diMQ) or 600 µM (5-amino-1MQ)
Caco-2 cells [1] = conditions: for Classification (Caco-2 permeability/efflux) / Efflux Ratio (Re): Caco-2; for Mean A➔B Papp / Mean B➔A Papp: Caco-2, pH 7.4
NNMT [2] = target: T1, NNMT (Mus musculus, UniProt O55239); conditions: read-out: IC50 (NNMT inhibition); biochemical assay; cited from earlier work
T1 sequence (O55239 1-264): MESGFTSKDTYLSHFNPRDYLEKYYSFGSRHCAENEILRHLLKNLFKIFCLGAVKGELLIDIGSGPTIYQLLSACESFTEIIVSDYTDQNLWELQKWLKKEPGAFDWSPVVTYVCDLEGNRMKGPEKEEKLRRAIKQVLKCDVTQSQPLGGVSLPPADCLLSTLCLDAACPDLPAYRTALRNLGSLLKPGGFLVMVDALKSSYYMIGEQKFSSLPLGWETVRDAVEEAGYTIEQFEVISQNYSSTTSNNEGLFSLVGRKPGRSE

[3] = PAMPA; for Flux: 4 h, 400 µM
NNMT [4] = target: T1, NNMT; assay: Intracellular NNMT reaction product 1-MNA in cultured 3T3-L1 cells; conditions: 24 h; for 1-MNA levels in adipocytes relative to control: 10 µM; for Intracellular levels of 1-MNA vs untreated controls: 30 µM
recombinant human DNMT1 = recombinant human DNMT1 (Homo sapiens, UniProt P26358); assay: DNMT1 radiometric activity assay; format: biochemical; conditions: for Inhibition of DNMT1: 10 nM to 200 µM (1,8-diMQ) or 600 µM (5-amino-1MQ); for IC50: read-out: IC50, DNA (cytosine-5)-methyltransferase 1, NI: no inhibition, NC: not calculable
recombinant human COMT = target: T2, recombinant human COMT (Homo sapiens, UniProt P21964); assay: COMT radiometric activity assay; format: biochemical
T2 sequence (P21964 1-271): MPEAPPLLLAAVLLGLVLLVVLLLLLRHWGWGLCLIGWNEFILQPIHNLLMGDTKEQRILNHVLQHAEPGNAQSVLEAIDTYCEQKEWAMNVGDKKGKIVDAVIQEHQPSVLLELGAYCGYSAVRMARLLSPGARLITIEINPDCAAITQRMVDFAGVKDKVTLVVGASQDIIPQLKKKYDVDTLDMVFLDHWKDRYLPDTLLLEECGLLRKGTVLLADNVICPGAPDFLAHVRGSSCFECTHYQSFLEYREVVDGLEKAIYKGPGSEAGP

Caco-2 cells [5] = assay: Bi-directional permeability assay with Caco-2 cells
[6] = Parallel artificial membrane permeability assay; conditions: for Flux: PAMPA passive transport, 400 µM donor in PBS, 4 h, room temperature; for Permeability Classification: PAMPA, BCS, Biopharmaceutics Classification System
3T3-L1 cells = assay: Adipocyte differentiation / lipogenesis by oil red O staining; format: cell-based; conditions: differentiating 3T3-L1 cells
recombinant human NAMPT = recombinant human NAMPT (Homo sapiens, UniProt P43490); assay: NAMPT fluorometric activity assay; format: biochemical
DIO C57Bl/6 mice = assay: Efficacy in diet-induced obese; format: in vivo
recombinant human SIRT-1 = target: T3, recombinant human SIRT-1 (Homo sapiens, UniProt Q96EB6); assay: SIRT-1 fluorometric activity assay; format: biochemical
T3 sequence (Q96EB6 1-747): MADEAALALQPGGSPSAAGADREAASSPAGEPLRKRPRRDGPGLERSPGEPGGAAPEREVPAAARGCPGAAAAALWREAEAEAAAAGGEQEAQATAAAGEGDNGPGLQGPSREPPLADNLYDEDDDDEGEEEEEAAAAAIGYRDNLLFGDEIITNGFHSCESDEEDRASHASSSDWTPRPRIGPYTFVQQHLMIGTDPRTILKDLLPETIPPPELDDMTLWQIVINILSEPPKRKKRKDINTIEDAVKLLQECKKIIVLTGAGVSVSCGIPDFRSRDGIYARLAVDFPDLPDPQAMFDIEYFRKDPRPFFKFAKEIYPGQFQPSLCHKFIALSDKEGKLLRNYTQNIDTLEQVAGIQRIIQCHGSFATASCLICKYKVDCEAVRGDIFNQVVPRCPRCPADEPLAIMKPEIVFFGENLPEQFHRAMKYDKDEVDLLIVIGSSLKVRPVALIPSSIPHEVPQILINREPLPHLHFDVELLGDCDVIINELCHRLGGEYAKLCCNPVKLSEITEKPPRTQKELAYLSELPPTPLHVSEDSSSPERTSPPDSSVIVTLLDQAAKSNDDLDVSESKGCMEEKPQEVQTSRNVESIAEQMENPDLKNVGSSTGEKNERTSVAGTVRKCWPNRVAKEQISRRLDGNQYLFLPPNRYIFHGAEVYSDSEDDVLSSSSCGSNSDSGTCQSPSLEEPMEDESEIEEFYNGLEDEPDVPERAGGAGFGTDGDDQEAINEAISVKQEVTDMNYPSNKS

[7] = tested on: differentiated 3T3-L1 adipocytes; assay: Intracellular metabolites; conditions: 24 h
3T3-L1 pre-adipocytes = assay: MTT cell viability assay; format: cell-based; conditions: highest tested concentration (0.1 – 60 µM range, Figure 6C)
[8] = DIO mice, 20 mg/kg SC three times daily, 11 days

Sequence of recombinant human DNMT1 (P26358 whole entry): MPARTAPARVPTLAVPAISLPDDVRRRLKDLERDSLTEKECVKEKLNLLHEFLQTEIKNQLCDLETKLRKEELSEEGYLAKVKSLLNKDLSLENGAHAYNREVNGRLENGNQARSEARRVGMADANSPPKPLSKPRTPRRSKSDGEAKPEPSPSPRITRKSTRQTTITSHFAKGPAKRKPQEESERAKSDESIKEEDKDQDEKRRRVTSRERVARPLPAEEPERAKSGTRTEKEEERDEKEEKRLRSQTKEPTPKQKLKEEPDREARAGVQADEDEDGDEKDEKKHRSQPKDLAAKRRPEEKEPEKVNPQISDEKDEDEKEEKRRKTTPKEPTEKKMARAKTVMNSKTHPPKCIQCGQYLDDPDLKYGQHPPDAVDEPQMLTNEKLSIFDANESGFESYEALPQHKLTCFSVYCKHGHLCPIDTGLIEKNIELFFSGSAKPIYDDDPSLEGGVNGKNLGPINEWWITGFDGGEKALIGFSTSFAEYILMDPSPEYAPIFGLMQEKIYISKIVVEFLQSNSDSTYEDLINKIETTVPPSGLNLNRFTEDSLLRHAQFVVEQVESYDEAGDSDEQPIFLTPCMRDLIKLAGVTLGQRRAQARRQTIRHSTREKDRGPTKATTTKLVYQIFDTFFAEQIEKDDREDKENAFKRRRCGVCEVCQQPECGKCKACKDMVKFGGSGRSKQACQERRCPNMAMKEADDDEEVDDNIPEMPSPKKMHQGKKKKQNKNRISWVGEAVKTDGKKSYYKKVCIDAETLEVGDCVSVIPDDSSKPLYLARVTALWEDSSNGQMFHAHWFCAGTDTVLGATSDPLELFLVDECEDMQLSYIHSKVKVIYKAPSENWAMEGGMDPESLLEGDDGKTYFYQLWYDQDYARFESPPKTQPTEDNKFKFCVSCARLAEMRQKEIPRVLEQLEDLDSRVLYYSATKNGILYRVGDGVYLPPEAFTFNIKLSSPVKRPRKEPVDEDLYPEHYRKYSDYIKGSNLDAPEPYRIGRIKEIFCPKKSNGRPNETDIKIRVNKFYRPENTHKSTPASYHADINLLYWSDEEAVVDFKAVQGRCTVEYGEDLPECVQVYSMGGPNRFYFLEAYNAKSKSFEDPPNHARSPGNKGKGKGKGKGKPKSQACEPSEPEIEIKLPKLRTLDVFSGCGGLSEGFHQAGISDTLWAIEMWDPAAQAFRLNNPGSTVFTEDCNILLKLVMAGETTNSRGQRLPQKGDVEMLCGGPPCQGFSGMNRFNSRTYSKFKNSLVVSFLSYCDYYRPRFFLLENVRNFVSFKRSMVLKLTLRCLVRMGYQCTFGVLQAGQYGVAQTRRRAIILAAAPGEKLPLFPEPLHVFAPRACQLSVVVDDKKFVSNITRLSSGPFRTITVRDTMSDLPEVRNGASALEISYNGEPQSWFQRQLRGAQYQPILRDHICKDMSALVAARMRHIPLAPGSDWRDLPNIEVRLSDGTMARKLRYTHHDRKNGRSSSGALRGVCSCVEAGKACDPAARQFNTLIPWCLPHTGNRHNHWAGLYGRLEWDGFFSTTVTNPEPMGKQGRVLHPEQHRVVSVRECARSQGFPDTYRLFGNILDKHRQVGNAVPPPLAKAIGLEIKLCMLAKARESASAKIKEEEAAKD
Sequence of recombinant human NAMPT (P43490 whole entry): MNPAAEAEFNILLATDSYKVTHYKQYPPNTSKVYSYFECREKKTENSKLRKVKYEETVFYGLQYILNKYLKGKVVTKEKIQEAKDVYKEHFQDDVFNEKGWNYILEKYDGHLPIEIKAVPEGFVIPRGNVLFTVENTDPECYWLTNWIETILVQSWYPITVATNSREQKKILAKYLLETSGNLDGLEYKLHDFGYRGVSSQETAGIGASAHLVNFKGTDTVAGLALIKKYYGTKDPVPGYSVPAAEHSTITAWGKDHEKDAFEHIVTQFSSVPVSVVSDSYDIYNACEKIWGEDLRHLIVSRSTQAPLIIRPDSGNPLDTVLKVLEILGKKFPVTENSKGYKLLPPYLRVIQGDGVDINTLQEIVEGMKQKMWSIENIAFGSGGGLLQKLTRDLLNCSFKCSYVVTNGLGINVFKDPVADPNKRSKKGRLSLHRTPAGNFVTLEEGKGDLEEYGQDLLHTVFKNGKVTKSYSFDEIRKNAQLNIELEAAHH
Sequence of recombinant human PRMT3 (O60678 whole entry): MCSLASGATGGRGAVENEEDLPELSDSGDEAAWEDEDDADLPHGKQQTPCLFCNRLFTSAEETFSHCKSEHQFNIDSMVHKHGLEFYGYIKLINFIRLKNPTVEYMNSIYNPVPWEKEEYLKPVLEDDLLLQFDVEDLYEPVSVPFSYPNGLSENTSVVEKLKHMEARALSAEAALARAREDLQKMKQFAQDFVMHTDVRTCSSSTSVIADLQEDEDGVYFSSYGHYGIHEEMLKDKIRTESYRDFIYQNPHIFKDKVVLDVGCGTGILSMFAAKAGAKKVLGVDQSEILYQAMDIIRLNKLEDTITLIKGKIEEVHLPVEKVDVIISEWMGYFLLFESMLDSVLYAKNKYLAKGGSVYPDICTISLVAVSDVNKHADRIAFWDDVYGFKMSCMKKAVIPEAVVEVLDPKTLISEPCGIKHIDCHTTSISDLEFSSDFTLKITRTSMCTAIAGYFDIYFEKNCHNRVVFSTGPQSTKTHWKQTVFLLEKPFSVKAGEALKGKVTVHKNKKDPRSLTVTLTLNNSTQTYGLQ

Nc1ncnc2c1ncn2[C@@H]1O[C@H](CSCC[C@H](N)C(=O)O)[C@@H](O)[C@H]1O [SAH, reference compound]
IC50 (recombinant human PRMT3; read-out: IC50, Protein arginine methyltransferase 3, NI: no inhibition, NC: not calculable): 6600 ± 1200 nM

C[n+]1c(N)c(N)cc2ccccc21 [2,3-diamine-1MQ]
Classification (Caco-2 permeability/efflux) (Caco-2 cells [1]): Moderate permeability (moderate efflux)
Efflux Ratio (Re) (Caco-2 cells [1]): 4.03
Mean A➔B Papp (Caco-2 cells [1]): 5.27 10^−6 cm/s
Mean B➔A Papp (Caco-2 cells [1]): 21.2 10^−6 cm/s
IC50 (NNMT [2]): 2800 nM
Permeability Classification [3]: High permeability
Flux [3]: 3.898e-06 cm/s

C[n+]1cccc2ccccc21 [1-MQ, 1-methylquinolinium]
IC50 (NNMT [2]): 12100 nM
Permeability Classification [3]: No permeability

Cc1cc(C)[n+](C)c2c(C)cccc12 [1,2,4,8-tetraMQ]
1-MNA levels in adipocytes relative to control (NNMT [4]; differentiated adipocytes): did not significantly decrease
IC50 (NNMT [2]): 109000 nM
Permeability Classification [3]: Low permeability
Flux [3]: 6.982e-07 cm/s

Cc1cccc2ccc[n+](C)c12 [1,8-diMQ]
Inhibition of DNMT1 (recombinant human DNMT1): did not inhibit
IC50 (recombinant human DNMT1): > 200000 nM
Inhibition of COMT (recombinant human COMT; maximal tested concentration 200 µM): 20%
IC50 (NNMT [2]): 1800 nM
Inhibition of PRMT3 (recombinant human PRMT3): did not inhibit
Mean B➔A Papp (Caco-2 cells [5]; Caco-2, 10 µM, 2 h, pH 7.4): 1.78 10^−6 cm/s
Mean A➔B Papp (Caco-2 cells [5]; Caco-2, 10 µM, 2 h, pH 7.4, BLQ: no peak detected in receiver side sample): BLQ
Classification (Caco-2 permeability/efflux) (Caco-2 cells [5]; Caco-2 assay): Low permeability
Flux [6]: 8.637e-07 cm/s
Permeability Classification [6]: Low permeability

C[n+]1cccc2c(N)cccc21 [5-amino-1MQ, 5-amino-1-methylquinolinium]
Relative intracellular 1-MNA level (of level in untreated adipocytes) (NNMT [4]; adipocytes, 10–60 µM, plateau): ~ 40%
1-MNA levels in adipocytes relative to control (NNMT [4]; differentiated adipocytes): significantly decreased
Intracellular levels of 1-MNA vs untreated controls (NNMT [4]; differentiated adipocytes): significant reduction
Intracellular levels of 1-MNA vs untreated controls (NNMT [4]; pre-adipocytes): significant reduction
EC50 (NNMT [4]; read-out: EC50 (inhibition of NNMT, intracellular 1-MNA), fully differentiated adipocytes, 0.3–60 µM): 2300 nM
Inhibition of DNMT1 (recombinant human DNMT1): did not inhibit
IC50 (recombinant human DNMT1): > 200000 nM
Reduction of lipogenesis vs control untreated adipocytes (3T3-L1 cells; 30 µM): 50%
Reduction of lipogenesis vs control untreated adipocytes (3T3-L1 cells; 60 µM): 70%
IC50 (recombinant human NAMPT; read-out: IC50, Nicotinamide phosphoribosyl transferase, concentrations above 100 µM could not be tested due to interference in the assay readout signal): > 100000 nM
Inhibition of NAMPT (recombinant human NAMPT; up to a tested concentration of 100 µM): did not inhibit
Classification (Caco-2 permeability/efflux) (Caco-2 cells [1]): High permeability (no efflux)
Mean A➔B Papp (Caco-2 cells [1]): 34.2 10^−6 cm/s
Mean B➔A Papp (Caco-2 cells [1]): 45.2 10^−6 cm/s
Tolerability in dose escalation study (DIO C57Bl/6 mice; DIO mice (n=2), total dose of 60 mg/kg/day): well tolerated with no observable adverse effects
Decrease in adipocyte size (EWAT histology) vs control DIO mice (DIO C57Bl/6 mice; [8]): > 30%
Total cumulative food intake (DIO C57Bl/6 mice; [8]): 26.2 ± 1.4 g
Decrease in adipocyte volume vs control DIO mice (DIO C57Bl/6 mice; DIO mice, 20 mg/kg SC three times daily, 11 days (data not shown)): > 40%
Plasma total cholesterol lower relative to control DIO mice (DIO C57Bl/6 mice; DIO mice, 20 mg/kg SC three times daily, 11 days, 4 h fast): ~ 30%
Inhibition of COMT (recombinant human COMT; maximal tested concentration 600 µM): 10%
IC50 (NNMT [2]): 1200 nM
Inhibition of PRMT3 (recombinant human PRMT3): did not inhibit
Inhibition of SIRT1 (recombinant human SIRT-1; 10 nM – 300 µM): did not inhibit
SIRT1 activity (recombinant human SIRT-1; 600 µM): minor reduction
Efflux Ratio (Re) (Caco-2 cells [5]; Re=Papp (B→A)/Papp (A→B)): 1.33
Permeability Classification [3]: High permeability
Flux [3]: 3.015e-06 cm/s
Intracellular NAD+ levels vs control ([7]; 10 µM): significant increase
Intracellular SAM levels vs control ([7]; 30 µM): significant increase
Intracellular levels of NA ([7]; 0.3–60 µM): no statistically significant main effect
Intracellular levels of SAH ([7]; 0.3–60 µM): no statistically significant main effect
Increase in NAD+ levels relative to control adipocytes ([7]; 1–60 µM): 1.2–1.6 fold
3T3-L1 cell viability vs untreated (3T3-L1 pre-adipocytes): only slightly reduced

C[n+]1cccc2c(N)c(F)ccc21 [5-amino-6-fluoro-1MQ]
Inhibition of NAMPT (recombinant human NAMPT; concentrations between 30 and 600 µM (data not shown)): no inhibition

C[n+]1cccc2ccc(N)cc21 [7-amino-1MQ]
Classification (Caco-2 permeability/efflux) (Caco-2 cells [1]): High permeability (no efflux)
Efflux Ratio (Re) (Caco-2 cells [1]): 1.52
Mean A➔B Papp (Caco-2 cells [1]): 26.0 10^−6 cm/s
Mean B➔A Papp (Caco-2 cells [1]): 39.6 10^−6 cm/s
IC50 (NNMT [2]): 2600 nM
Permeability Classification [3]: High permeability
Flux [3]: 2.055e-06 cm/s

C[n+]1cccc(C(N)=O)c1 [1-MNA, 1-methylnicotinamide, reference compound]
Flux [6]: 0 cm/s
Permeability Classification [6]: No permeability

C[n+]1cc(N)cc2cc(F)ccc21 [3-amino-6-fluoro-1MQ]
1-MNA levels in adipocytes relative to control (NNMT [4]; differentiated adipocytes): significantly decreased
IC50 (NNMT [2]): 1200 nM
Permeability Classification [3]: Moderate permeability
Flux [3]: 1.078e-06 cm/s

c1ccc2ncccc2c1 [Quinoline, reference compound]
Permeability Classification [3]: High permeability
